Tests used:
Histone deacetylase 1 [1] = target: T1, Histone deacetylase 1 (Homo sapiens, UniProt Q13547); assay: Inhibition of human recombinant HDAC1 expressed in insect High5 cells using baculovirus expression system using Ac-Lys-Tyr-Lys (epsilon-acetyl)-AMC as substrate incubated for 24 hrs by multilabel plate reader method; set-up: species or system BTI-TN-5B1-4
Histone deacetylase 3 = Histone deacetylase 3 (Homo sapiens, UniProt O15379); assay: Inhibition of human recombinant HDAC3 expressed in insect High5 cells using baculovirus expression system using Ac-Lys-Tyr-Lys (epsilon-acetyl)-AMC as substrate incubated for 24 hrs by multilabel plate reader method; set-up: species or system BTI-TN-5B1-4
[2] = target: T2, Protein deacetylase HDAC6 (Homo sapiens, UniProt Q9UBN7); assay: Inhibition of human recombinant HDAC6 expressed in insect High5 cells using baculovirus expression system using Boc-Lys (epsilon-acetyl)-AMC as substrate incubated for 3 hrs by multilabel plate reader method; set-up: species or system BTI-TN-5B1-4
T2 sequence (Q9UBN7 whole entry): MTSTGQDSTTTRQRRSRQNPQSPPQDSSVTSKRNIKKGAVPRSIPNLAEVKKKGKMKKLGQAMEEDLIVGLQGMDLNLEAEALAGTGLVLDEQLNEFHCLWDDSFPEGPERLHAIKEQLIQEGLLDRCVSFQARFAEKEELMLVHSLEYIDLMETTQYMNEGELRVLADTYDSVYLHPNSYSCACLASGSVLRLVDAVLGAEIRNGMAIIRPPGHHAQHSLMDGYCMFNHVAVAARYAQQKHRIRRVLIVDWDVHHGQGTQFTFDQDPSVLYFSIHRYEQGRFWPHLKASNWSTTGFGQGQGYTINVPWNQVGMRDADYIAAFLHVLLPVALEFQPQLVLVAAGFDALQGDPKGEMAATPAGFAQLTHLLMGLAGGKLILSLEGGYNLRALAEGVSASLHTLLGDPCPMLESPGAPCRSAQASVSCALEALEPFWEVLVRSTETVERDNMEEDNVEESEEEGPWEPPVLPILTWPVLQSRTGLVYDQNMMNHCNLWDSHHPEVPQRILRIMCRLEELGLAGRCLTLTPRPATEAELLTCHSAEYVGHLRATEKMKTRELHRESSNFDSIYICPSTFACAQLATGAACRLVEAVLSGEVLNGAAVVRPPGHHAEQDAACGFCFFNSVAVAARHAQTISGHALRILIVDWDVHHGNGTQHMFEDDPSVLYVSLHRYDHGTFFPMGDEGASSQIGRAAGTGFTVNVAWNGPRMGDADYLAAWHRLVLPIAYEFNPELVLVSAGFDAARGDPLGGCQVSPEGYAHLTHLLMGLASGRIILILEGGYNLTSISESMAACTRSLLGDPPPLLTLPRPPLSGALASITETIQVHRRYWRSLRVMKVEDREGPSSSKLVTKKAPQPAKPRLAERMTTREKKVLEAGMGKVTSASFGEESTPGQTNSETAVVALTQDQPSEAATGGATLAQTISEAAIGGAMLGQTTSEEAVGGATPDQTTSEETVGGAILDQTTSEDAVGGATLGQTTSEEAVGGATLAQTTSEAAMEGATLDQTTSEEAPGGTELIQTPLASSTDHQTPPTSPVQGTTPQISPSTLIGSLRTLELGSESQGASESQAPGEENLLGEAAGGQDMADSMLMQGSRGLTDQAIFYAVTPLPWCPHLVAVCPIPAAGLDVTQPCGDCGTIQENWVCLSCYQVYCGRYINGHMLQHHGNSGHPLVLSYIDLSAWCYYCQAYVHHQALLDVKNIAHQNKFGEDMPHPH

[3] = target: T3, Epidermal growth factor receptor (Homo sapiens, UniProt P00533); assay: Inhibition of EGFR (unknown origin) using synthetic biotinylated peptide as substrate […] by microplate reader method relative to control
Histone deacetylase = assay: Inhibition of HDAC in human HeLa cell nuclear extract using fluorogenic Boc-Lys(acetyl)-AMC as substrate preincubated for 5 mins followed by addition of substrate measured after 20 mins by microplate reader; assay type: cell-free
[4] = target: Nuclear factor NF-kappa-B complex (Homo sapiens, UniProt P19838+Q00653+Q04206); assay: Inhibition of NF-kappaB (unknown origin); assay type: protein-complex assay
[5] = target: Receptor tyrosine-protein kinase erbB-2 (Homo sapiens, UniProt P04626); assay: Inhibition of HER2 (unknown origin)
[6] = target: T3, Epidermal growth factor receptor; assay: Inhibition of EGFR (unknown origin) by microplate reader
Tubulin [7] = assay: Inhibition of tubulin polymerization (unknown origin) by measuring absorbance; assay type: protein-complex assay, Homo sapiens
[8] = target: T3, Epidermal growth factor receptor; assay: Inhibition of EGFR (unknown origin)
Histone deacetylase 1 [9] = target: T1, Histone deacetylase 1; assay: Inhibition of HDAC1 (unknown origin)
[10] = target: T2, Protein deacetylase HDAC6; assay: Inhibition of HDAC6 (unknown origin)
Tubulin [11] = assay: Inhibition of tubulin polymerization (unknown origin); assay type: protein-complex assay, Homo sapiens
[12] = target: Fibroblast growth factor receptor 4 (Homo sapiens, UniProt P22455); assay: Inhibition of FGFR4 (unknown origin) using biotin as substrate incubated for 2 hrs by HTRF assay
[13] = target: T3, Epidermal growth factor receptor; assay: Inhibition of EGFR (unknown origin) using biotin as substrate incubated for 2 hrs by HTRF assay
A-431 [14] = assay: Antiproliferative activity against human A-431 cells overexpressing wildtype EGFR assessed as cell growth inhibition incubated for 24 hrs; assay type: functional
NCI-H1975 = assay: Antiproliferative activity against human H1975 cells overexpressing EGFR T790M/L858R assessed as cell growth inhibition incubated for 24 hrs; assay type: functional
MCF7 [15] = assay: Antiproliferative activity against human MCF7 cells overexpressing HER2 assessed as cell growth inhibition incubated for 24 hrs; assay type: functional
MDA-MB-231 = assay: Growth inhibition of human MDA-MB-231 cells incubated for 72 hrs by MTT assay; assay type: functional
MDA-MB-468 = assay: Growth inhibition of human MDA-MB-468 cells incubated for 72 hrs by MTT assay; assay type: functional
HT-29 = assay: Growth inhibition of human HT-29 cells incubated for 72 hrs by MTT assay; assay type: functional
KG-1 = assay: Growth inhibition of human KG-1 cells incubated for 72 hrs by MTT assay; assay type: functional
A549 = assay: Growth inhibition of human A549 cells; assay type: functional
A-431 [16] = assay: Growth inhibition of human A-431 cells; assay type: functional
MCF7 [17] = assay: Growth inhibition of human MCF7 cells; assay type: functional

T3 sequence (P00533 whole entry): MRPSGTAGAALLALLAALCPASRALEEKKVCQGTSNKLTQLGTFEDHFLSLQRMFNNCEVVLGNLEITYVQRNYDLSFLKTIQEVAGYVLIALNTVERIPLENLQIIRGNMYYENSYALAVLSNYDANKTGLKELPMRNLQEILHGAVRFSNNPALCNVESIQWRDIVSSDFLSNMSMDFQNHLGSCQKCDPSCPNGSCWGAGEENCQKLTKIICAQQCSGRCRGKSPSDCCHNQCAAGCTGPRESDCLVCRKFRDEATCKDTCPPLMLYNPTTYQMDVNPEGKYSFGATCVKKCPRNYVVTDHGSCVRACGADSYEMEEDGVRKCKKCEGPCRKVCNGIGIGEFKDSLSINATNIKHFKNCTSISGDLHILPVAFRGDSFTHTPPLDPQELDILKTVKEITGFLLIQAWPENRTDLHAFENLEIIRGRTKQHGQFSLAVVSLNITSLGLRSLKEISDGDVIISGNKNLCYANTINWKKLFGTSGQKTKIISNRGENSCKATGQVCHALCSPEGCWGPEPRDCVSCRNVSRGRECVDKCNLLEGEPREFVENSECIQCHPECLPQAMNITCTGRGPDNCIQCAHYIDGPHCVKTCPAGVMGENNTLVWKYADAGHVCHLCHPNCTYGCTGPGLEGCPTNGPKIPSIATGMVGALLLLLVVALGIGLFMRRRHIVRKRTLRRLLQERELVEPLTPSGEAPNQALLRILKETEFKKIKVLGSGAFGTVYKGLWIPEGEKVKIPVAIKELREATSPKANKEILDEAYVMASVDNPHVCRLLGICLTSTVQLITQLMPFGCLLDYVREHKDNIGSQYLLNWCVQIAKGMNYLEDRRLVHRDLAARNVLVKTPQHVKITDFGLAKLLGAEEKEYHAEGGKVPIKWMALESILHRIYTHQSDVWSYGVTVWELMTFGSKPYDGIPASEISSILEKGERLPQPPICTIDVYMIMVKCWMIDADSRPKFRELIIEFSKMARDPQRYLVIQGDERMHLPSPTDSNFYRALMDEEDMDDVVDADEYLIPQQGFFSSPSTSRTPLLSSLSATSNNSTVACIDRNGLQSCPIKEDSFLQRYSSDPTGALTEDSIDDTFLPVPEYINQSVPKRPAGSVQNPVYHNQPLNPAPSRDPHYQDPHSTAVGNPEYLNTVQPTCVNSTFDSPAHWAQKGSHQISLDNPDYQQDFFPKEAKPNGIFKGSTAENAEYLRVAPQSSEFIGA
Sequence of Nuclear factor NF-kappa-B complex (P19838 1-433 limits assumed): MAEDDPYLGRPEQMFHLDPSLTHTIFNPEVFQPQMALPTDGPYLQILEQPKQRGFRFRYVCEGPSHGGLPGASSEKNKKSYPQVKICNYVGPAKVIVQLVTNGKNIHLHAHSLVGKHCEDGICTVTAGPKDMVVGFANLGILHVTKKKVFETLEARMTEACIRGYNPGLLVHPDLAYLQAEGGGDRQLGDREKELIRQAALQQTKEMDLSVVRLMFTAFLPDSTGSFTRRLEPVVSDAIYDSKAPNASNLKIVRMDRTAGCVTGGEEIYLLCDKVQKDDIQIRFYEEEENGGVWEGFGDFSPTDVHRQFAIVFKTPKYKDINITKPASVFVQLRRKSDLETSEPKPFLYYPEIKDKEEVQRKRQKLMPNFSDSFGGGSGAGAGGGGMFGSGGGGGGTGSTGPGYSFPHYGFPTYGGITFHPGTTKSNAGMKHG
Sequence of Nuclear factor NF-kappa-B complex (Q00653 1-454 limits assumed): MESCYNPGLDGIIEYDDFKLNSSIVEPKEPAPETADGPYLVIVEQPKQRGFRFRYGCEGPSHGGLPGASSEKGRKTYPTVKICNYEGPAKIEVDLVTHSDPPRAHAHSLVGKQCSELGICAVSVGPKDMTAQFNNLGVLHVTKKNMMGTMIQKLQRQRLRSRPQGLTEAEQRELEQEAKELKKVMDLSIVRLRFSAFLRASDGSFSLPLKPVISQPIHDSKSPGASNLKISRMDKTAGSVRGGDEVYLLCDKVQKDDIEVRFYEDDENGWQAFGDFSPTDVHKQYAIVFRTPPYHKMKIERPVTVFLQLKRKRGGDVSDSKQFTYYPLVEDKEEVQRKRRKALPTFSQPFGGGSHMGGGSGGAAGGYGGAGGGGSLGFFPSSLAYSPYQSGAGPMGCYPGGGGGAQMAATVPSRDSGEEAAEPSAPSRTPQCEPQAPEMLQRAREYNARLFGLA
Sequence of Nuclear factor NF-kappa-B complex (Q04206 whole entry): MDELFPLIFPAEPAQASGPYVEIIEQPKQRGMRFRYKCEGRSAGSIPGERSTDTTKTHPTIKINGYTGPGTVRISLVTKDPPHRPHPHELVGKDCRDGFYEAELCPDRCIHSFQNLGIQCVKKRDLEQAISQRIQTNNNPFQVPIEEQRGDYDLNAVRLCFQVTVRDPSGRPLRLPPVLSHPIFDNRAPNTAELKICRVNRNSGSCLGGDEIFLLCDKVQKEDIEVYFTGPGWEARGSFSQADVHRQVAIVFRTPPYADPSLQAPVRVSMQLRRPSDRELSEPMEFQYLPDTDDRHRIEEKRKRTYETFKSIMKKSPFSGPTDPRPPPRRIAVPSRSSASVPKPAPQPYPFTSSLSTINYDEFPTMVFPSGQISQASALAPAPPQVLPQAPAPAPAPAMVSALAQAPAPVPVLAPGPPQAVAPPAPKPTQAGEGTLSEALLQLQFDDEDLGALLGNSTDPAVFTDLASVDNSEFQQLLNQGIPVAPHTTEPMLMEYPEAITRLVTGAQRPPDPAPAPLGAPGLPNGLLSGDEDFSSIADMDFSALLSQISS
T1 sequence (Q13547 whole entry): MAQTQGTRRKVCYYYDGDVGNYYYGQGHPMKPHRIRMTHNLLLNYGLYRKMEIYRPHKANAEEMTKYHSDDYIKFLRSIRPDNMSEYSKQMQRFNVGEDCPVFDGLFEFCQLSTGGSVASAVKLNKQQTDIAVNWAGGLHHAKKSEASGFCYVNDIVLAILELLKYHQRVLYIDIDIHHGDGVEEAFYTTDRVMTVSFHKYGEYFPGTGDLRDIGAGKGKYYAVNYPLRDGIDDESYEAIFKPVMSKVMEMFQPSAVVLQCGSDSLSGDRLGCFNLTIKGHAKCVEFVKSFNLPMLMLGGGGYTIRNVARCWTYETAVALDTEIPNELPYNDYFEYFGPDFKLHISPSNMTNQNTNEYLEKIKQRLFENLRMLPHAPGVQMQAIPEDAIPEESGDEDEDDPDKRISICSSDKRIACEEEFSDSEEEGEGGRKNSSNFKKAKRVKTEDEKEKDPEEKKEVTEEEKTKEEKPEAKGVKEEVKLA
Sequence of Receptor tyrosine-protein kinase erbB-2 (P04626 whole entry): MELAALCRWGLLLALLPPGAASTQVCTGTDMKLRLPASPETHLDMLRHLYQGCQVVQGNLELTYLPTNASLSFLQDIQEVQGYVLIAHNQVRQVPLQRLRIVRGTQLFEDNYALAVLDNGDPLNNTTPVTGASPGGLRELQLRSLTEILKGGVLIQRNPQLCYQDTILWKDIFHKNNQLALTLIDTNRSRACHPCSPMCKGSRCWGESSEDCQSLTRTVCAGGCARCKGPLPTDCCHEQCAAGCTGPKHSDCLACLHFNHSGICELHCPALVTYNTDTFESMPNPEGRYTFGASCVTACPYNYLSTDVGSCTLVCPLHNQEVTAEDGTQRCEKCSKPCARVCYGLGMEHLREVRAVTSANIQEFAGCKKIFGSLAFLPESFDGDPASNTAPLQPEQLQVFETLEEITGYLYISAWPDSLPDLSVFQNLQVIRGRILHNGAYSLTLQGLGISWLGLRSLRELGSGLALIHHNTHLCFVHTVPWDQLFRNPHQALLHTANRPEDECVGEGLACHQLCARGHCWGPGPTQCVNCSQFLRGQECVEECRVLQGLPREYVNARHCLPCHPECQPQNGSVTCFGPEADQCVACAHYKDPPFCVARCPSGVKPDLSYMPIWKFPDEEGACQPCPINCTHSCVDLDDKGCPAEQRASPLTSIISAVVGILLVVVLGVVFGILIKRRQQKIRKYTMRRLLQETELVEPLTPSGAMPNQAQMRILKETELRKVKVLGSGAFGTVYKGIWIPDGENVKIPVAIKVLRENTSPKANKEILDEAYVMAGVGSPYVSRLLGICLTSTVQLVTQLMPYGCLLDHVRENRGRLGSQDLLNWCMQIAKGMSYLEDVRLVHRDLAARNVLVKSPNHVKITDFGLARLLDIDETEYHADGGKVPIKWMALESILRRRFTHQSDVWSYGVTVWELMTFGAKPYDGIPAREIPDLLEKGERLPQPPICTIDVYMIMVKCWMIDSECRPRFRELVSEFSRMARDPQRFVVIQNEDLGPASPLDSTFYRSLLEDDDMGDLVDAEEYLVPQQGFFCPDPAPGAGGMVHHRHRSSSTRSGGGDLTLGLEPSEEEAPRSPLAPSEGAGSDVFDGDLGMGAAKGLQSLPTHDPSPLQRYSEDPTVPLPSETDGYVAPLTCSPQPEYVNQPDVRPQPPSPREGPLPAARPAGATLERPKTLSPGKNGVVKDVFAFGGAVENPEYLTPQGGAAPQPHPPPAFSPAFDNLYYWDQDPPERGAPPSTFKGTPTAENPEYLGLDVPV
Sequence of Histone deacetylase 3 (O15379 whole entry): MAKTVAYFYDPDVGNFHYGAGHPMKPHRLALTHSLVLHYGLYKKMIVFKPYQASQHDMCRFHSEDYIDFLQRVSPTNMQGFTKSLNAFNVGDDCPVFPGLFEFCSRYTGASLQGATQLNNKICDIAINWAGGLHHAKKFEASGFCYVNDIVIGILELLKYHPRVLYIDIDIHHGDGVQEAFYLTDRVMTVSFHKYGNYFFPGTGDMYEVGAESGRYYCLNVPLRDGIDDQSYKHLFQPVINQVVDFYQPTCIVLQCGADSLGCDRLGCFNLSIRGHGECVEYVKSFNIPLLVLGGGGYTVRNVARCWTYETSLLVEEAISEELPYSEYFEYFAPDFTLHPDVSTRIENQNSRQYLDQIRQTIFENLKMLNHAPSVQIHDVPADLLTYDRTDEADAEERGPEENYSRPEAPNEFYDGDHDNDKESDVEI

In the case of `COc1cc2ncnc(Nc3cccc(/C=C/C(=O)NO)c3)c2cc1OCCCN1CCOCC1`, the IC50 (Histone deacetylase 1 [1]) is reported as 160 nM, the IC50 (Histone deacetylase 3) is reported as 180 nM and the IC50 [2] is reported as 560 nM. The inhibition [3] was 9.7%.

Work on `Cn1cc(-c2ccnc(Nc3ccc(C(=O)NCCCCCCC(=O)NO)cc3)n2)c2ccccc21` yielded an IC50 (Histone deacetylase) of 105 nM.

`S=C(NCc1ccccc1)Nc1ccc2ncnc(Nc3cccc(Br)c3)c2c1` showed an IC50 [4] of 4100 nM.

In the case of `Cc1c(NC(=O)OC[C@@H]2COCCN2)cn2ncnc(Nc3ccc4c(cnn4Cc4cccc(F)c4)c3)c12` [AC-480], the IC50 [5] is reported as 30 nM.

`FC(F)(F)c1csc(NC(=S)Nc2ccc3ncnc(Nc4cccc(Cl)c4)c3c2)n1` showed an IC50 [4] of 600 nM.

In the case of `CCOCCSc1nc(-c2ccccc2Cl)nn1CCOCC`, the IC50 [6] is reported as 86.7 nM and the IC50 (Tubulin [7]) is reported as 10700 nM.

Molecule `Fc1cc(F)cc(NC(=S)Nc2ccc3ncnc(Nc4cccc(Cl)c4)c3c2)c1` has an IC50 [4] of 300 nM.

For `O=C(CCCCn1cc(-c2ccc3ncnc(Nc4ccccc4F)c3c2)nn1)NO`, the IC50 [8] was 10.3 nM, the IC50 (Histone deacetylase 1 [9]) was 1.1 nM and the IC50 [10] was 4.3 nM.

Molecule `O=C(/C=C\c1ccc(OC(F)(F)F)cc1)c1ccc(Br)c2cc(-c3ccc(F)cc3)oc12` has an IC50 [8] of 120 nM.

With `COc1cc(Nc2ncnc3cc(-c4ccc(C)cc4)sc23)cc(OC)c1OC` the IC50 (Tubulin [11]) was 710 nM.

With `COc1cc2ncnc(Oc3ccc(NC(=O)Nc4cccc(C(F)(F)F)c4)c4ccccc34)c2cc1OC` the IC50 [12] was 86.2 nM and the IC50 [13] was 83.9 nM.

With `COc1ccc(N(C)c2nc(N)nc3c(Cc4ccccc4)c[nH]c23)cc1` the IC50 (Tubulin [11]) was > 20000 nM.

Work on `CC(C)(O)CC(=O)NCCc1ccc2ncnc(Nc3ccc(Oc4cccc(C(F)(F)F)c4)c(Cl)c3)c2c1` yielded a GI50 (A-431 [14]) of 41 nM, a GI50 (NCI-H1975) of 127 nM and a GI50 (MCF7 [15]) of 94 nM.

`COc1ccc(/C=C\C(=O)c2ccc(Br)c3cc(-c4ccc(F)cc4)oc23)cc1` showed an IC50 [8] of 90 nM.

`NS(=O)(=O)c1ccc(NC(=O)c2ccccc2NC(=O)c2ccco2)cc1` gave an IC50 [6] of 31.2 nM and an IC50 (Tubulin [11]) of 108 nM.

Molecule `O=C(Nc1ccccc1C(=O)N/N=C/c1ccc(O)cc1O)c1ccco1` has an IC50 [6] of 85.4 nM and an IC50 (Tubulin [11]) of 87.6 nM.

`CCN1CCN(Cc2ccc(-c3cc4c(N[C@H](C)c5ccccc5)ncnc4[nH]3)cc2)CC1` [AEE-788] was tested, and the IC50 [5] was 6 nM.

In the case of `COc1cc(NC(=O)CCCCCCC(=O)NO)ccc1Nc1nccc(-c2cn(C)c3ccccc23)n1`, the GI50 (MDA-MB-231) is reported as 600 nM, the GI50 (MDA-MB-468) is reported as 230 nM and the GI50 (HT-29) is reported as 790 nM. For the same molecule, the GI50 (KG-1) was 240 nM.

`O=C(Nc1ccc2ncnc(Nc3cccc(Br)c3)c2c1)c1ccc(C(F)(F)F)cc1O` was tested, and the GI50 (A549) was 1640 nM, the GI50 (A-431 [16]) was 670 nM and the GI50 (MCF7 [17]) was 490 nM.

Reference: ChEMBL document CHEMBL5137005, “Development of Dual Inhibitors Targeting Epidermal Growth Factor Receptor in Cancer Therapy” (J Med Chem, 2022)
